Source: patent US11053234B2 (GlaxoSmithKline Intellectual Property Development Limited, priority 2016, dated 2021)

Target: T1, haematopoietic prostaglandin D synthase (H-PGDS) (Homo sapiens, UniProt O60760)
T1 construct: Full length human H-PGDS cDNA (Invitrogen Ultimate ORF 10H13026) was amplified by PCR; 6-His (N); TEV protease cleavage site (N); made in house; host or cells: E. coli BL21 (DE3*), vector pET22b+
Assay: H-PGDS RapidFire high throughput mass spectrometry assay (conversion of PGH2 to PGD2)
Assay type: biochemical
Conditions: 10 nM H-PGDS, PGH2 formed in situ by COX-2 from arachidonic acid; read-out: Potency Range (mean pIC50) (converted)
Procedure, shortened: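 PGH2 substrate generated in situ by COX-2 (full-length human, FLAG-tagged, Sf9-expressed) from arachidonic acid at ˜10 μM, then converted by full-length human His-tagged H-PGDS (E. coli-expressed). RapidFire SPE–triple quadrupole MS measured PGD2 against PGF2α as substrate surrogate to give percent conversion.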

T1 sequence (O60760 whole entry): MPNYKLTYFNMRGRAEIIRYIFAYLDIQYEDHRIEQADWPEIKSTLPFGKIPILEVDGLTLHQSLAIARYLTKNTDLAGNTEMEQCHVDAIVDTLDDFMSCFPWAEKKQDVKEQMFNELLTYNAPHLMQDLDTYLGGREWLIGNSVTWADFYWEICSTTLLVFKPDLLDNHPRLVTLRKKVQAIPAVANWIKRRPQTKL

SMILES	IC50
Cc1nccc(N2CC(NC(=O)[C@H]3C[C@H](Oc4cc(F)cc5scnc45)C3)C2)n1 [Example 123, (trans)-3-((6-Fluorobenzo[d]thiazol-4-yl)oxy)-N-(1-(2-methylpyrimidin-4-yl)azetidin-3-yl)cyclobutanecarboxamide]	10 to 79.4 nM
COCCO[C@H]1CC[C@H](NC(=O)N2CC(Oc3cc(F)cc4scnc34)C2)CC1 [Example 128, 3-((6-Fluorobenzo[d]thiazol-4-yl)oxy)-N-((trans)-4-(2-methoxyethoxy)cyclohexyl)azetidine-1-carboxamide]	10 to 79.4 nM
O=C(NC1CN(c2ncccn2)C1)N1CC(Oc2cc(F)cc3scnc23)C1 [Example 129, 3-((6-Fluorobenzo[d]thiazol-4-yl)oxy)-N-(1-(pyrimidin-2-yl)azetidin-3-yl)azetidine-1-carboxamide]	10 to 79.4 nM
O=C(NC1CN(c2ccnc(Cl)n2)C1)N1CC(Oc2cc(F)cc3scnc23)C1 [Example 130, N-(1-(2-Chloropyrimidin-4-yl)azetidin-3-yl)-3-((6-fluorobenzo[d]thiazol-4-yl)oxy)azetidine-1-carboxamide]	10 to 79.4 nM
C[C@]1(O)C[C@@H](NC(=O)[C@H]2C[C@H](Oc3cc(F)cc4scnc34)C2)C1 [Example 131, (trans)-3-((6-Fluorobenzo[d]thiazol-4-yl)oxy)-N-((cis)-3-hydroxy-3-methylcyclobutyl)cyclobutanecarboxamide]	100 to 1000 nM
O=C(NC1CN(c2ccccn2)C1)N1CC(Oc2cc(F)cc3scnc23)C1 [Example 132, 3-((6-Fluorobenzo[d]thiazol-4-yl)oxy)-N-(1-(pyridin-2-yl)azetidin-3-yl)azetidine-1-carboxamide]	10 to 79.4 nM
O=C(NC1CN(c2ncccn2)C1)[C@H]1C[C@H](Oc2cc(F)cc3scnc23)C1 [Example 133, (trans)-3-((6-Fluorobenzo[d]thiazol-4-yl)oxy)-N-(1-(pyrimidin-2-yl)azetidin-3-yl)cyclobutanecarboxamide]	10 to 79.4 nM
N#Cc1ccnc(N2CC(NC(=O)N3CC(Oc4cc(F)cc5scnc45)C3)C2)c1 [Example 134]	10 to 79.4 nM
O=C(NC1CN(c2ncc(F)cn2)C1)N1CC(Oc2cc(F)cc3scnc23)C1 [Example 135, 3-((6-Fluorobenzo[d]thiazol-4-yl)oxy)-N-(1-(5-fluoropyrimidin-2-yl)azetidin-3-yl)azetidine-1-carboxamide]	10 to 79.4 nM
O=C(NC1CN(c2ncc(F)cn2)C1)[C@H]1C[C@H](Oc2cc(F)cc3scnc23)C1 [Example 136, (trans)-3-((6-Fluorobenzo[d]thiazol-4-yl)oxy)-N-(1-(5-fluoropyrimidin-2-yl)azetidin-3-yl)cyclobutanecarboxamide]	10 to 79.4 nM
O=C(NC1CN(c2ccccn2)C1)[C@H]1C[C@H](Oc2cc(F)cc3scnc23)C1 [Example 137, (trans)-3-((6-Fluorobenzo[d]thiazol-4-yl)oxy)-N-(1-(pyridin-2-yl)azetidin-3-yl)cyclobutanecarboxamide]	10 to 79.4 nM
O=C(Nc1nc(C2CC2)cs1)[C@H]1C[C@H](Oc2cccc3scnc23)C1 [Example 138, (trans)-3-(Benzo[d]thiazol-4-yloxy)-N-(4-cyclopropylthiazol-2-yl)cyclobutanecarboxamide]	< 10 nM
CC(C)(O)[C@H]1CC[C@H](NC(=O)[C@H]2C[C@H](Oc3cc(F)cc4scnc34)C2)CC1 [Example 140, (trans)-3-((6-Fluorobenzo[d]thiazol-4-yl)oxy)-N-((trans)-4-(2-hydroxypropan-2-yl)cyclohexyl)cyclobutanecarboxamide]	10 to 79.4 nM
COc1ccc(F)cc1O[C@H]1C[C@H](C(=O)NN2CCc3ccccc32)C1 [Example 146, (trans)-3-(5-Fluoro-2-methoxyphenoxy)-N-(indolin-1-yl)cyclobutanecarboxamide]	10 to 79.4 nM
COc1ccc(F)cc1O[C@H]1C[C@H](C(=O)NC2CN(c3ncc(C#N)s3)C2)C1 [Example 147, (trans)-N-(1-(5-Cyanothiazol-2-yl)azetidin-3-yl)-3-(5-fluoro-2-methoxyphenoxy)cyclobutanecarboxamide]	10 to 79.4 nM
COc1ccc(F)cc1O[C@H]1C[C@H](C(=O)NC2CC3(C2)CN(c2cc(C#N)ccn2)C3)C1 [Example 148, (trans)-N-(2-(4-Cyanopyridin-2-yl)-2-azaspiro[3.3]heptan-6-yl)-3-(5-fluoro-2-methoxyphenoxy)cyclobutanecarboxamide]	10 to 79.4 nM
COc1ccc(F)cc1O[C@H]1C[C@H](C(=O)NC2CN(c3cc(C#N)ccn3)C2)C1 [Example 149, (trans)-N-(1-(4-Cyanopyridin-2-yl)azetidin-3-yl)-3-(5-fluoro-2-methoxyphenoxy)cyclobutanecarboxamide]	< 10 nM
COc1ccc(F)cc1O[C@H]1C[C@H](C(=O)N[C@H]2CC[C@H](OC)CC2)C1 [Example 150, (trans)-3-(5-Fluoro-2-methoxyphenoxy)-N-((trans)-4-methoxycyclohexyl)cyclobutanecarboxamide]	10 to 79.4 nM

SMILES	IC50
COc1ccc(F)cc1O[C@H]1C[C@H](C(=O)N[C@H]2CC[C@H](N3CCOCC3=O)CC2)C1 [Example 151, (trans)-3-(5-Fluoro-2-methoxyphenoxy)-N-((trans)-4-(3-oxomorpholino)cyclohexyl)cyclobutanecarboxamide]	100 to 1000 nM
COc1ccc(F)cc1O[C@H]1C[C@H](C(=O)NC2CCN(c3nnnn3C)CC2)C1 [Example 152, (trans)-3-(5-Fluoro-2-methoxyphenoxy)-N-(1-(1-methyl-1H-tetrazol-5-yl)piperidin-4-yl)cyclobutanecarboxamide]	10 to 79.4 nM
COc1ccc(F)cc1O[C@H]1C[C@H](C(=O)NC2CCN(c3nccs3)CC2)C1 [Example 154, (trans)-3-(5-Fluoro-2-methoxyphenoxy)-N-(1-(thiazol-2-yl)piperidin-4-yl)cyclobutanecarboxamide]	10 to 79.4 nM
COc1ccc(F)cc1O[C@H]1C[C@H](C(=O)NC2CCN(c3cc(C#N)ccn3)CC2)C1 [Example 155, (trans)-N-(1-(4-Cyanopyridin-2-yl)piperidin-4-yl)-3-(5-fluoro-2-methoxyphenoxy)cyclobutanecarboxamide]	10 to 79.4 nM
COc1ccc(CN2CCC(NC(=O)[C@H]3C[C@H](Oc4cc(F)ccc4OC)C3)CC2)cc1Cl [Example 156, (trans)-N-(1-(3-Chloro-4-methoxybenzyl)piperidin-4-yl)-3-(5-fluoro-2-methoxyphenoxy)cyclobutanecarboxamide]	10 to 79.4 nM
COc1ccc(F)cc1O[C@H]1C[C@H](C(=O)NC2CCN(c3ccccn3)CC2)C1 [Example 157, (trans)-3-(5-Fluoro-2-methoxyphenoxy)-N-(1-(pyridin-2-yl)piperidin-4-yl)cyclobutanecarboxamide]	10 to 79.4 nM
COc1ccc(F)cc1O[C@H]1C[C@H](C(=O)Nc2nc(C(=O)N(C)C)co2)C1 [Example 158, 2-((trans)-3-(5-Fluoro-2-methoxyphenoxy)cyclobutanecarboxamido)-N,N-dimethyloxazole-4-carboxamide]	10 to 79.4 nM
COc1ccc(F)cc1O[C@H]1C[C@H](C(=O)Nc2cccc(C#N)n2)C1 [Example 159, (trans)-N-(6-Cyanopyridin-2-yl)-3-(5-fluoro-2-methoxyphenoxy)cyclobutanecarboxamide]	10 to 79.4 nM
COc1ccc(F)cc1O[C@H]1C[C@H](NC(=O)[C@H]2CC[C@H](C(C)(C)O)CC2)C1 [Example 162, (trans)-N-((trans)-3-(5-Fluoro-2-methoxyphenoxy)cyclobutyl)-4-(2-hydroxypropan-2-yl)cyclohexanecarboxamide]	100 to 1000 nM
COc1ccc(F)cc1O[C@H]1C[C@H](C(=O)Nc2nc(C(C)=O)cs2)C1 [Example 163, (trans)-N-(4-Acetylthiazol-2-yl)-3-(5-fluoro-2-methoxyphenoxy)cyclobutanecarboxamide]	10 to 79.4 nM
COc1ccc(F)cc1O[C@H]1C[C@H](C(=O)Nc2ncc(C(C)=O)s2)C1 [Example 164, (trans)-N-(5-Acetylthiazol-2-yl)-3-(5-fluoro-2-methoxyphenoxy)cyclobutanecarboxamide]	< 10 nM
COc1ccc(F)cc1O[C@H]1C[C@H](C(=O)Nc2ncc(C(C)(C)O)s2)C1 [Example 165, (trans)-3-(5-Fluoro-2-methoxyphenoxy)-N-(5-(2-hydroxypropan-2-yl)thiazol-2-yl)cyclobutanecarboxamide]	10 to 79.4 nM
COc1ccc(F)cc1O[C@H]1C[C@H](C(=O)Nc2nnc(C)s2)C1 [Example 166, (trans)-3-(5-Fluoro-2-methoxyphenoxy)-N-(5-methyl-1,3,4-thiadiazol-2-yl)cyclobutanecarboxamide]	10 to 79.4 nM
COc1ccc(F)cc1O[C@H]1C[C@H](C(=O)Nc2nc(C3CC3)cs2)C1 [Example 167, (trans)-N-(4-Cyclopropylthiazol-2-yl)-3-(5-fluoro-2-methoxyphenoxy)cyclobutanecarboxamide]	< 10 nM
COc1ccc(F)cc1O[C@H]1C[C@H](C(=O)N[C@H]2CC[C@H](C(C)(C)O)CC2)C1 [Example 168, (trans)-3-(5-Fluoro-2-methoxyphenoxy)-N-((trans)-4-(2-hydroxypropan-2-yl)cyclohexyl)cyclobutanecarboxamide]	10 to 79.4 nM
COc1ccc(F)cc1O[C@H]1C[C@H](C(=O)N[C@H]2CC[C@H](OCC(C)(C)O)CC2)C1 [Example 169, (trans)-3-(5-Fluoro-2-methoxyphenoxy)-N-((trans)-4-(2-hydroxy-2-methylpropoxy)cyclohexyl)cyclobutanecarboxamide]	10 to 79.4 nM
CCOC(=O)c1coc(NC(=O)[C@H]2C[C@H](Oc3cccc4cccnc34)C2)n1 [Example 171, ethyl 2-((trans)-3-(quinolin-8-yloxy)cyclobutanecarboxamido)oxazole-4-carboxylate]	10 to 79.4 nM
